From patent publication US20230072683A1, “PYRIDO-PYRIMIDIN DERIVATIVES AND PHARMACEUTICAL COMPOSITION, FOR USE IN PREVENTING OR TREATING PI3 KINASE RELATED DISEASES, COMPRISING SAME AS ACTIVE INGREDIENT” (BORYUNG PHARMACEUTICAL CO., LTD, priority 2019, published 2023)

What was measured:
[1] = target: PI3K-δ (PI3K(p1108/p857) (h)) (Homo sapiens, UniProt O00329); test: Evaluation of inhibitory activity against PI3K-δ (HTRF kinase assay); type: biochemical; details: for inhibition at 0.01 µM: compound concentration 0.01 μM, read-out: EXP_VALUE(% Inhibition) PI3K-δ 0.01 μM; for inhibition at 0.1 µM: compound concentration 0.1 μM, read-out: EXP_VALUE(% Inhibition) PI3K-δ 0.1 μM
Chain of PI3K-δ (PI3K(p1108/p857) (h)) (O00329 whole entry, the tested form may be a part): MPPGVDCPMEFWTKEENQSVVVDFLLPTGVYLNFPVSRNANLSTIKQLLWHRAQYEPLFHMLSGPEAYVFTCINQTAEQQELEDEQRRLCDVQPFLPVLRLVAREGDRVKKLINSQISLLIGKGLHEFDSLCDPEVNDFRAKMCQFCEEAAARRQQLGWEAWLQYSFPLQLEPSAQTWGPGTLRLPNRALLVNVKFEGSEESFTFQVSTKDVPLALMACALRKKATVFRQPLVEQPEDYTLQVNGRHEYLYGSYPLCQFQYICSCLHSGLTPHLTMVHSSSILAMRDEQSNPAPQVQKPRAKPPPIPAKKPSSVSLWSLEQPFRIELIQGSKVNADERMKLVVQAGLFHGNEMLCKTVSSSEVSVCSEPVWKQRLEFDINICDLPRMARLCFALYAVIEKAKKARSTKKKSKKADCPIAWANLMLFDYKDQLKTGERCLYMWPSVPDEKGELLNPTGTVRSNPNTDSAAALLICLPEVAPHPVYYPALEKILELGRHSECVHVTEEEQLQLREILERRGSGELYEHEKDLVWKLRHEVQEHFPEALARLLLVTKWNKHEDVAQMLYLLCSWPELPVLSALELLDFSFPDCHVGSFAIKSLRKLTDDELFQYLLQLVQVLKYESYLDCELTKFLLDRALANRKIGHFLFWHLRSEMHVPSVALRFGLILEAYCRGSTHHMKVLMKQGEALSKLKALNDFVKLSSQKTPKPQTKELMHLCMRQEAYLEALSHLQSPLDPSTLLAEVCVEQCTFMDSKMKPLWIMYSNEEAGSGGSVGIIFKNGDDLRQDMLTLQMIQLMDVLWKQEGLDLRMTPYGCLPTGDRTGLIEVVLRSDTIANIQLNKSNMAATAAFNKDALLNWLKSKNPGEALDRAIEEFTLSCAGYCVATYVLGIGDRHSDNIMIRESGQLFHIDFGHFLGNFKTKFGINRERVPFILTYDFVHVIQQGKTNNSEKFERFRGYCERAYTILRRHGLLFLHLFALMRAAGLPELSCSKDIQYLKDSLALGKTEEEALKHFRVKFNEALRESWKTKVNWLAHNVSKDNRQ
Chain of PI3K-δ (PI3K(p1108/p857) (h)) (P27986 whole entry partner, the tested form may be a part): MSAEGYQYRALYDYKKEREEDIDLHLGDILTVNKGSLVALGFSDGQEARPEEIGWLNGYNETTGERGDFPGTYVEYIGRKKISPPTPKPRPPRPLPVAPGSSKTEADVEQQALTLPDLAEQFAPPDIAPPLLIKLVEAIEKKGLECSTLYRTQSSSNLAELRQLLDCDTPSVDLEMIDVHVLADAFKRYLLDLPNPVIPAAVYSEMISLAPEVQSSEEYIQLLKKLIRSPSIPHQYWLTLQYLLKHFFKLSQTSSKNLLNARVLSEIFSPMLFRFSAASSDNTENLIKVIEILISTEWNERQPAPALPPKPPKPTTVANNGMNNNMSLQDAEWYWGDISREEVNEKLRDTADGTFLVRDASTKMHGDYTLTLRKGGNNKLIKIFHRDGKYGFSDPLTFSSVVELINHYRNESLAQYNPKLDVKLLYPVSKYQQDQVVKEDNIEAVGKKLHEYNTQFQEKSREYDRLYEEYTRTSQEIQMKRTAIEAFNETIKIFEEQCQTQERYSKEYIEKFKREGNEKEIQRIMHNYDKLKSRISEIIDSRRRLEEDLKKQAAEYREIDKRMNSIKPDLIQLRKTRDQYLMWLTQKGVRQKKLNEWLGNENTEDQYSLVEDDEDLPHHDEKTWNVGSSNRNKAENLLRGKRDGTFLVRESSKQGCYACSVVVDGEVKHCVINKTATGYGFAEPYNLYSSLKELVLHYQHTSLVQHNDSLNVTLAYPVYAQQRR
Method in brief: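 HTRF read-out (665/620 nm ratio ×10000) used Eu-labelled anti-GST, GST-tagged GRP1 PH domain and streptavidin-allophycocyanin after EDTA/PIP3 stop.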

[2] = target: DNA-PK(h) (Homo sapiens, UniProt P78527); test: Evaluation of inhibitory activity against DNA-PK (HTRF kinase assay, GST-cMyc-p53 substrate); type: biochemical; details: for inhibition at 0.01 µM: compound concentration 0.01 μM, read-out: EXP_VALUE(% Inhibition) DNA-PK(h) 0.01 μM; for inhibition at 0.1 µM: compound concentration 0.1 μM, read-out: EXP_VALUE(% Inhibition) DNA-PK(h) 0.1 μM
Method in brief: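 Human DNA-PK with 50 μM GST-cMyc-p53 substrate; reaction started with Mg/ATP, run 30 min at room temperature, stopped with EDTA. Phospho-Ser15 p53 detected by HTRF (Eu anti-phospho-Ser15, d2 anti-GST), signal = 10000×(Em 665/Em 620).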

SMILES	inhibition at 0.01 µM [1] [%]	inhibition at 0.01 µM [2] [%]	inhibition at 0.1 µM [1] [%]	inhibition at 0.1 µM [2] [%]
C[C@H](Nc1ncnc2[nH]ccc(=O)c12)c1c(Cl)c2cccc(C(=O)C3CC3)c2c(=O)n1-c1ccccc1 [Example 269, (S)-4-((1-(4-chloro-8-(cyclopropanecarbonyl)-1-oxo-2-phenyl-1,2-dihydroisoquinolin-3-yl)ethyl)amino)pyrido[2,3-d]pyrimidin-5(8H)-one]	37	26		
C[C@H](Nc1ncnc2[nH]ccc(=O)c12)c1c(Cl)c2cccc(C=O)c2c(=O)n1-c1ccccc1 [Example 271, (S)-4-chloro-1-oxo-3-(1-((5-oxo-5,8-dihydropyrido[2,3-d]pyrimidin-4-yl)amino)ethyl)-2-phenyl-1,2-dihydroisoquinolin-8-carbaldehyde]	60	19		
C[C@H](Nc1ncnc2[nH]ccc(=O)c12)c1c(Cl)c2cccc(/C=N/O)c2c(=O)n1-c1ccccc1 [Example 273, (S,E)-4-chloro-1-oxo-3-(1-((5-oxo-5,8-dihydropyrido[2,3-d]pyrimidin-4-yl)amino)ethyl)-2-phenyl-1,2-dihydroisoquinoline-8-carbaldehyde oxime]	44	36		
CNC(=O)c1cccc2c(Cl)c([C@H](C)Nc3ncnc4[nH]ccc(=O)c34)n(-c3ccccc3)c(=O)c12 [Example 274, (S)-4-chloro-N-methyl-1-oxo-3-(1-((5-oxo-5,8-dihydropyrido[2,3-d]pyrimidin-4-yl)amino)ethyl)-2-phenyl-1,2-dihydroisoquinoline-8-carboxamide]	99	18		
CCCNC(=O)c1cccc2c(Cl)c([C@H](C)Nc3ncnc4[nH]ccc(=O)c34)n(-c3ccccc3)c(=O)c12 [Example 275, (S)-4-chloro-1-oxo-3-(1-((5-oxo-5,8-dihydropyrido[2,3-d]pyrimidin-4-yl)amino)ethyl)-2-phenyl-N-propyl-1,2-dihydroisoquinoline-8-carboxamide]	104	8		
C[C@H](Nc1ncnc2[nH]ccc(=O)c12)c1c(Cl)c2cccc(C(=O)NC3COC3)c2c(=O)n1-c1ccccc1 [Example 276, (S)-4-chloro-N-(oxetan-3-yl)-1-oxo-3-(1-((5-oxo-5,8-dihydropyrido[2,3-d]pyrimidin-4-yl)amino)ethyl)-2-phenyl-1,2-dihydroisoquinoline-8-carboxamide]	96	29		
C[C@H](Nc1ncnc2[nH]ccc(=O)c12)c1c(Cl)c2cccc(C(=O)NC3CCC3)c2c(=O)n1-c1ccccc1 [Example 277, (S)-4-chloro-N-cyclobutyl-1-oxo-3-(1-((5-oxo-5,8-dihydropyrido[2,3-d]pyrimidin-4-yl)amino)ethyl)-2-phenyl-1,2-dihydroisoquinoline-8-carboxamide]	99	8		
C[C@H](Nc1ncnc2[nH]ccc(=O)c12)c1c(Cl)c2cccc(C(=O)NCc3cccs3)c2c(=O)n1-c1ccccc1 [Example 278, (S)-4-chloro-1-oxo-3-(1-((5-oxo-5,8-dihydropyrido[2,3-d]pyrimidin-4-yl)amino)ethyl)-2-phenyl-N-(thiophen-2-ylmethyl)-1,2-dihydroisoquinoline-8-carboxamide]	104	6		
C[C@H](Nc1ncnc2[nH]ccc(=O)c12)c1c(Cl)c2cccc(C(=O)NCc3ccco3)c2c(=O)n1-c1ccccc1 [Example 279, (S)-4-chloro-N-(furan-2-ylmethyl)-1-oxo-3-(1-((5-oxo-5,8-dihydropyrido[2,3-d]pyrimidin-4-yl)amino)ethyl)-2-phenyl-1,2-dihydroisoquinoline-8-carboxamide]	105	11		
C[C@H](Nc1ncnc2[nH]ccc(=O)c12)c1c(Cl)c2cccc(C(=O)NCc3ccccc3)c2c(=O)n1-c1ccccc1 [Example 280, (S)—N-benzyl-4-chloro-1-oxo-3-(1-((5-oxo-5,8-dihydropyrido[2,3-d]pyrimidin-4-yl)amino)ethyl)-2-phenyl-1,2-dihydroisoquinoline-8-carboxamide]	91	15		
C[C@H](Nc1ncnc2[nH]ccc(=O)c12)c1c(Cl)c2cccc(C(=O)NCCN3CCOCC3)c2c(=O)n1-c1ccccc1 [Example 281, (S)-4-chloro-N-(2-morpholinoethyl)-1-oxo-3-(1-((5-oxo-5,8-dihydropyrido[2,3-d]pyrimidin-4-yl)amino)ethyl)-2-phenyl-1,2-dihydroisoquinoline-8-carboxamide]	75	13		
CC(C)NC(=O)c1cccc2c(Cl)c([C@H](C)Nc3ncnc4[nH]ccc(=O)c34)n(-c3ccccc3)c(=O)c12 [Example 282, (S)-4-chloro-N-isopropyl-1-oxo-3-(1-((5-oxo-5,8-dihydropyrido[2,3-d]pyrimidin-4-yl)amino)ethyl)-2-phenyl-1,2-dihydroisoquinoline-8-carboxamide]	79	14		
C[C@H](Nc1ncnc2[nH]ccc(=O)c12)c1c(Cl)c2cccc(C(=O)NCC3CC3)c2c(=O)n1-c1ccccc1 [Example 283, (S)-4-chloro-N-(cyclopropylmethyl)-1-oxo-3-(1-((5-oxo-5,8-dihydropyrido[2,3-d]pyrimidin-4-yl)amino)ethyl)-2-phenyl-1,2-dihydroisoquinoline-8-carboxamide]	81	12		
C[C@H](Nc1ncnc2[nH]ccc(=O)c12)c1c(Cl)c2cccc(C(=O)NC(C)(C)CO)c2c(=O)n1-c1ccccc1 [Example 284, (S)-4-chloro-N-(1-hydroxy-2-methylpropan-2-yl)-1-oxo-3-(1-((5-oxo-5,8-dihydropyrido[2,3-d]pyrimidin-4-yl)amino)ethyl)-2-phenyl-1,2-dihydroisoquinoline-8-carboxamide]	25	10		
C[C@H](Nc1ncnc2[nH]ccc(=O)c12)c1c(Cl)c2cccc(C(=O)NC(C)(C)C)c2c(=O)n1-c1ccccc1 [Example 285, (S)—N-(tert-butyl)-4-chloro-1-oxo-3-(1-((5-oxo-5,8-dihydropyrido[2,3-d]pyrimidin-4-yl)amino)ethyl)-2-phenyl-1,2-dihydroisoquinoline-8-carboxamide]	22	15		
C[C@H](Nc1ncnc2[nH]ccc(=O)c12)c1c(Cl)c2cccc(C(=O)N3CCOCC3)c2c(=O)n1-c1ccccc1 [Example 286, (S)-4-((1-(4-chloro-8-(morpholine-4-carbonyl)-1-oxo-2-phenyl-1,2-dihydroisoquinolin-3-yl)ethyl)amino)pyrido[2,3-d]pyrimidin-5(8H)-one]	52	23		
C[C@H](Nc1ncnc2[nH]ccc(=O)c12)c1c(Cl)c2cccc(-c3ncc[nH]3)c2c(=O)n1-c1ccccc1 [Example 287, (S)-4-((1-(4-chloro-8-(1H-imidazol-2-yl)-1-oxo-2-phenyl-1,2-dihydroisoquinolin-3-yl)ethyl)amino)pyrido[2,3-d]pyrimidin-5(8H)-one]	38	28		
Cc1nc(-c2cccc3c(Cl)c([C@H](C)Nc4ncnc5[nH]ccc(=O)c45)n(-c4ccccc4)c(=O)c23)[nH]c1C [Example 288, (S)-4-((1-(4-chloro-8-(4,5-dimethyl-1H-imidazol-2-yl)-1-oxo-2-phenyl-1,2-dihydroisoquinolin-3-yl)ethyl)amino)pyrido[2,3-d]pyrimidin-5(8H)-one]	28	8		
C[C@H](Nc1ncnc2[nH]ccc(=O)c12)c1c(Cl)c2cccc(C3=NC(C)(C)CO3)c2c(=O)n1-c1ccccc1 [Example 289, (S)-4-((1-(4-chloro-8-(4,4-dimethyl-4,5-dihydrooxazol-2-yl)-1-oxo-2-phenyl-1,2-dihydroisoquinolin-3-yl)ethyl)amino)pyrido[2,3-d]pyrimidin-5(8H)-one]	10	27		
C[C@H](Nc1ncnc2[nH]ccc(=O)c12)c1c(Cl)c2cccc(C(=O)O)c2c(=O)n1-c1ccccc1 [Example 290, (S)-4-chloro-1-oxo-3-(1-((5-oxo-5,8-dihydropyrido[2,3-d]pyrimidin-4-yl)amino)ethyl)-2-phenyl-1,2-dihydroisoquinoline-8-carboxylic acid]	80	39	102	76
C[C@H](Nc1ncnc2[nH]ccc(=O)c12)c1c(Cl)c2cccc(C(N)=O)c2c(=O)n1-c1ccccc1 [Example 291, (S)-4-chloro-1-oxo-3-(1-((5-oxo-5,8-dihydropyrido[2,3-d]pyrimidin-4-yl)amino)ethyl)-2-phenyl-1,2-dihydroisoquinoline-8-carboxamide]	91	31	101	78
CCOC(=O)c1cccc2c(Cl)c([C@H](C)Nc3ncnc4[nH]ccc(=O)c34)n(-c3ccccc3)c(=O)c12 [Example 292, ethyl(S)-4-chloro-1-oxo-3-(1-((5-oxo-5,8-dihydropyrido[2,3-d]pyrimidin-4-yl)amino)ethyl)-2-phenyl-1,2-dihydroisoquinoline-8-carboxylate]	99	79	112	99
